Laboratory results published in publication PMC8777805, “Interactions of Nereistoxin and Its Analogs with Vertebrate Nicotinic Acetylcholine Receptors and Molluscan ACh Binding Proteins” (Marine Drugs, 2022).
Read-outs that look alike come from different tables or passages of the source.

Key:
[1] = biological target: T1, Torpedo electric organ muscle type nAChR (Tetronarce californica, UniProt P02710+P02714+P02718); assay: [125I]-α-BTX displacement, Torpedo electric organ membranes; format: binding
T1 construct: from tissue; host or cells: Torpedo californica electric organ washed membranes

[2] = biological target: T2, A. californica BP Y55W mutant (Aplysia californica, UniProt Q8WSF8, Y72W); assay: [3H]-epibatidine scintillation proximity binding assay, Ac AChBP Y55W mutant; conditions: inhibition of [3H]-epibatidine binding; read-out: IC50 ± SEM, Ac BP Y55W
T2 construct: made in house
Procedure: (§1) The AChBP proteins were expressed and purified according to Hansen et al.. Determination of compound affinity for an AChBP utilized a modification of the Scintillation Proximity Assay reported previously. Briefly, the AChBP constructs (0.5–1.0 nM final concentration of binding sites) were combined with polyvinyltoluene anti-mouse SPA scintillation beads (0.17 mg/mL final concentration, Perkin Elmer), monoclonal anti-FLAG M2 antibody from mouse 1:8000 dilution (Sigma), and 0.1 M NaPO4 buffer, pH 7.0. This cocktail was distributed to a 96-well plate and incubated with either vehicle (total binding), unknown sample (10 µM final concentration), or a saturating concentration (10 µM) of the known competitive ligand methyllycaconitine to determine the nonspecific binding. The radioligand (±)-[^3H]-epibatidine (Perkin Elmer, 5 nM final concentration) was added to each well with varying the concentrations of competing ligand and allowed to incubate at room temperature for 1 hr. Plates were read on a 1450 MicroBeta TriLux liquid scintillation counter (Wallac) and the output normalized. All measurements were conducted in duplicate a minimum of 3 times. The IC50 values were calculated using GraphPad Prism version 4.02 (GraphPad Software, 2006, San Diego, CA, USA, www.graphpad.com).

[3] = biological target: T3, Aplysia californica AChBP (Aplysia californica, UniProt Q8WSF8); assay: [3H]-epibatidine scintillation proximity binding assay, Ac AChBP; conditions: for IC50: inhibition of [3H]-epibatidine binding, read-out: IC50 ± SEM, Ac BP
T3 construct: made in house
Procedure: as §1

rat brain α4β2 nAChRs = biological target: T4, rat brain α4β2 nAChRs (Rattus norvegicus, UniProt P09483+P12390); assay: [3H]-cytisine displacement, rat brain membranes; format: binding
T4 construct: from tissue; host or cells: whole rat brain membranes
Procedure: Rat brain membranes (100 μg of protein) expressing […] α4β2 nAChRs were incubated with 0.5 nM [^3H]-cytisine in a final volume of 500 µL binding saline for 4 h at 5 °C. […] Ten different concentrations of the experimental compound were usually tested in quadruplicate. Nonspecific binding was measured in the presence of 1 mM (S)-nicotine hydrogen tartrate (Sigma-Aldrich). Data were fitted using GraphPad Prism software (Version 4 GraphPad Software, San Diego, CA, USA) by nonlinear regression analyses to a sigmoidal one-site model with variable slope.

Lymnaea stagnalis AChBP = biological target: T5, Lymnaea stagnalis AChBP (Lymnaea stagnalis, UniProt P58154); assay: [3H]-epibatidine scintillation proximity binding assay, Ls AChBP; conditions: inhibition of [3H]-epibatidine binding; read-out: IC50 ± SEM, Ls BP
T5 construct: made in house
Procedure: as §1

rat brain α7 nAChR = biological target: T6, rat brain α7 nAChR (Rattus norvegicus, UniProt Q05941); assay: [125I]-α-BTX displacement, rat brain membranes; format: binding
T6 construct: from tissue; host or cells: whole rat brain membranes

molluscan AChBPs = assay: Preincubation with toxin before [3H]-epibatidine addition, AChBPs; format: binding
Procedure: as §1

[4] = biological target: T7, L. stagnalis AChBP C187S mutant (Lymnaea stagnalis, UniProt P58154, C206S); assay: [3H]-epibatidine scintillation proximity binding assay, Ls AChBP C187S mutant; conditions: for IC50: inhibition of [3H]-epibatidine binding
T7 construct: made in house
Procedure: as §1

[5] = biological target: T8, human α4β2 nAChRs expressed in TsA201 cells (Homo sapiens, UniProt P17787+P43681); assay: FlexStation membrane potential functional assay; format: cell-based; conditions: for activation (membrane depolarization) of human α4β2 nAChRs: MeNTX up to 300 µM, relative to 5 µM ACh; for inhibition of ACh activation of human α4β2 nAChRs: response to 5 μM acetylcholine
T8 construct: expressed in transfected cells; host or cells: TsA201 cells
Procedure: TsA201 cells expressing human α4β2 were maintained in media consisting of Dulbecco’s Modified Eagle medium supplemented with 10% FBS, 100 units/mL penicillin and 100 μg/mL streptomycin, 2 mM L-glutamine, 0.5 mg/mL zeocin, and 0.6 mg/mL geneticin. Cells were grown in 75 cm^2 culture flasks, which were housed in a humidified incubator (Fisher Scientific, Atlanta, GA, USA at 37 °C in an atmosphere of 5% CO2. They were grown to around 80–90% confluence after harvesting with 0.25% trypsin and being split weekly at a subcultivation ratio of between 1:6 and 1:10.
Our experimental protocol was based on the initial study of Fitch et al.. Cells were seeded at a density of roughly 5 × 10^4 to 10^5 cells/well in 96-well flat-bottom black wall culture plates coated with 50 μg /mL poly-D-lysine hydrobromide (Sigma-Aldrich, 70–150 kDa) and grown overnight in 100 μL culture medium. A proprietary membrane potential dye obtained from Molecular Devices (San Diego, CA, USA) was prepared by dissolving one bottle of dye into 30 mL of Hanks Saline (pH = 7.4) containing 20 mM HEPES buffer. The cells were incubated with 100 μL of dye for 30 min at 37 °C prior to the robotically controlled concentration-response experiment. Serial dilutions of a compound for dose-response analysis were prepared in 96-well plates by evaporation of a methanolic stock solution and then reconstituted in the appropriate volume of Hanks saline. Fluid transfer and readings were performed by a FlexStation fluorimeter (Molecular Devices). Excitation and emission wavelengths were set to 530 nm and 565 nm with a cutoff of 550 nm. The first 17 s were used as a basal reading.

[6] = parameters: method as in earlier work; conditions: cited from earlier work
[7] = system: phencyclidine binding site of Torpedo nAChR ion channel; assay: [3H]-TCP binding to Torpedo membranes; conditions: results not shown
Description: We have not yet deciphered the mechanism by which this small molecule can be an nAChR antagonist. […] We did observe that NTX inhibited [^3H]-TCP (radiolabelled analog of phencyclidine) binding to the Torpedo membranes, but this only occurred at NTX concentrations that were ~10X higher than were required to inhibit α-BTX binding (results not shown). Since most competitive antagonists are relatively large rigid molecules, elucidating the molecular mechanism by which NTX, an extremely small molecule, acts as an nAChR antagonist merits further investigation.

[8] = [125I]-α-BTX displacement, mean of n experiments, read-out: IC50 ± SEM, Torpedo electric organ
[9] = rat brain membranes, [3H]-cytisine displacement, mean of n experiments, read-out: IC50 ± SEM, α4β2
[10] = rat brain membranes, [125I]-α-BTX displacement, mean of n experiments, read-out: IC50 ± SEM, α7
[11] = Torpedo IC50 (single experiment, Figure 7 left), 30 min preincubation before BTX
[12] = single [3H]-cytisine displacement experiment
[13] = single [3H]-cytisine displacement experiment, read-out: α4β2 IC50 (individual experiment, Figure 3)
[14] = single [125I]-αBTX displacement experiment
[15] = single [125I]-αBTX displacement experiment, read-out: α7 IC50 (representative experiment, Figure 6)

SMILES | IC50 [1, 8] | IC50 [2] | IC50 [3] | IC50 (rat brain α4β2 nAChRs; [9]) | IC50 (Lymnaea stagnalis AChBP) | IC50 (rat brain α7 nAChR; [10]) | IC50 [1, 11] | effect of 24 hr preincubation on inhibition of [3H]-epibatidine binding (molluscan AChBPs) | affinity of Aplysia californica AChBP less than for NTX ([3]; MeNTX versus NTX) | α4β2 Hillslope (individual experiment, Figure 3) (rat brain α4β2 nAChRs; [12]) | IC50 (rat brain α4β2 nAChRs; [13]) | affinity of Ls C187S mutant greater than for NTX ([4]; MeNTX versus NTX) | IC50 [4] | α7 Hillslope (representative experiment, Figure 6) (rat brain α7 nAChR; [14]) | IC50 (rat brain α7 nAChR; [15]) | activation (membrane depolarization) of human α4β2 nAChRs [5] | inhibition of ACh activation of human α4β2 nAChRs [5] | dimethylamino pKa [6] | NTX concentrations inhibiting [3H]-TCP binding, higher than required to inhibit α-BTX binding [7]
CN(C)C1CSCSC1 [DMA-DT, 5-dimethylamino-1,3-dithiane] | > 500 µM | 41.4 ± 4.4 µM | 28 ± 0.27 µM | 160 ± 96 µM | 22 ± 2.4 µM | 640 ± 220 µM | – | – | – | – | – | – | – | – | – | – | – | – | –
C[N+](C)(C)C1CSSC1 [MeNTX, N-methylnereistoxin] | 9.3 ± 4.9 µM | 74 ± 5.2 µM | 260 ± 71 µM | 120 ± 13 µM | 163 ± 8.7 µM | 45 ± 2.3 µM | 11.2 µM | failed to detect any effect | ~ 3.5 fold | -1.5 | 121 µM | ~ 4 fold | 41 µM | -1.0 | 89.4 µM | failed to activate | inhibited ACh activation | – | –
CN(C)C1CSSC1 [NTX, 4-dimethylamino-1,2-dithiolane, reference compound] | 230 ± 71 µM | 110 ± 25 µM | 71 ± 1.9 µM | 60 ± 22 µM | 140 ± 24 µM | 390 ± 8.6 µM | 254 µM | failed to detect any effect | – | -1.5 | 81.6 µM | – | 160 µM | -2.6 | 826 µM | no measurable depolarizing activity | inhibited ACh activation | 7.2 | ~ 10 X
C[N+](C)(C)C1CSCSC1 [TMA-DT, 5-trimethylamino-1,3-dithiane] | 150 µM | 18 ± 2.8 µM | 20 ± 2 µM | 290 ± 60 µM | 3.7 ± 0.39 µM | 90 ± 4.3 µM | – | – | – | – | – | – | – | – | – | – | – | – | –
